# Calls of active or inactive are those of the source.
# Columns and labels:
# [1] = Trypanosoma cruzi growth suppression in host cells – NIH3T3 host cells, beta-gal luminescence, confirmation (AID 2044); assay type: functional, cell-based;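 also: intracellular parasites grown in NIH/3T3 mouse fibroblasts as host cells; luminescent beta-galactosidase reporter signal from transgenic T. cruzi replicating inside host cells; inhibitors lower the luminescence signal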
# [2] = NIH3T3 cell viability loss – ATP luminescence, mouse fibroblasts, counter-screen, dose response (AID 2010); assay type: functional, cell-based;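 also: cells exposed to compound for about 90 hours before reading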
# [3] = target: 5-hydroxytryptamine receptor 1E (Homo sapiens, UniProt P28566); test: Counterscreen assay for S1P3 antagonists: Dose response cell-based high throughput screening assay to identify antagonists of the 5-Hydroxytryptamine Receptor Subtype 1E (5HT1E). [Related pubchem assays: 1429, 485 ]; assay type: functional
# [4] = target: Sphingosine 1-phosphate receptor 3 (Homo sapiens, UniProt Q99500); test: Dose response cell-based high throughput screening assay for antagonists of the Sphingosine 1-Phosphate Receptor 3 (S1P3). [Related pubchem assays: 1429, 485 ]; assay type: functional
# [5] = target: Potassium voltage-gated channel subfamily KQT member 2 (Rattus norvegicus, UniProt O88943, W236L); test: potentiation of rat KCNQ2 current – cell-based, automated electrophysiology, mechanism study for KCNQ2 potentiator project, dose response (AID 2603); assay type: functional
# [6] = target: Bcl-2-like protein 10 (Homo sapiens, UniProt Q9HD36); test: Bcl-B/TR3 peptide binding disruption – biochemical, fluorescence polarization, FITC-TR3 peptide, selectivity assay for Bfl-1 inhibitor project, primary screen (AID 748);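 also: fluorescence polarization from a fluorescein-labelled TR3 peptide binding purified Bcl-B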
# [7] = target: Estrogen receptor beta (Homo sapiens, UniProt Q92731); test: blockers of SRC-3 recruitment to ERβ – biochemical, ELISA, streptavidin-HRP readout, orthogonal assay, confirmation (AID 1060)
# Sequence of Estrogen receptor beta (Q92731 whole entry): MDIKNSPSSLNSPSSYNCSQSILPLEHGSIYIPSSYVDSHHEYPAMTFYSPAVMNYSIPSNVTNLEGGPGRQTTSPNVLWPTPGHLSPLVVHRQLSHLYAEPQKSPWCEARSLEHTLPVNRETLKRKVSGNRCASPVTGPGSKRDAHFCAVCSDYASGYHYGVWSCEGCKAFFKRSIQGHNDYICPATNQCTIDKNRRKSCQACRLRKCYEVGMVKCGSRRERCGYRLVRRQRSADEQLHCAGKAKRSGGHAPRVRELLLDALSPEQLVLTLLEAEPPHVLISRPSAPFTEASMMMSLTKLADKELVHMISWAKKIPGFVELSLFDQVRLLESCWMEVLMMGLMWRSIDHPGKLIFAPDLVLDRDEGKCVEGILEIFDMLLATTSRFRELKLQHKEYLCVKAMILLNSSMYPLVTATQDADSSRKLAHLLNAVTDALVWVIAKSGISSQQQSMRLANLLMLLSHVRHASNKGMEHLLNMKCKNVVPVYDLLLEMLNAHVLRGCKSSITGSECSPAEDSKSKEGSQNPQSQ
# Sequence of Sphingosine 1-phosphate receptor 3 (Q99500 whole entry): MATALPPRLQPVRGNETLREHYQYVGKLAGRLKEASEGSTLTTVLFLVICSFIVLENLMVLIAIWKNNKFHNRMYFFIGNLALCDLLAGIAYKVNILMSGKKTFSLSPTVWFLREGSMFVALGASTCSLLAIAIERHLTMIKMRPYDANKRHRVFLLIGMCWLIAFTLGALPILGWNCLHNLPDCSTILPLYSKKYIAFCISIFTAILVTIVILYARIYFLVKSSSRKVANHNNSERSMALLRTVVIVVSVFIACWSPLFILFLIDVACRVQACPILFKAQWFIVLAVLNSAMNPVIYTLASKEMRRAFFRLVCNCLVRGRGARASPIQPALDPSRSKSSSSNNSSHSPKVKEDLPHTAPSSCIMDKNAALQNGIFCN
# Sequence of 5-hydroxytryptamine receptor 1E (P28566 whole entry): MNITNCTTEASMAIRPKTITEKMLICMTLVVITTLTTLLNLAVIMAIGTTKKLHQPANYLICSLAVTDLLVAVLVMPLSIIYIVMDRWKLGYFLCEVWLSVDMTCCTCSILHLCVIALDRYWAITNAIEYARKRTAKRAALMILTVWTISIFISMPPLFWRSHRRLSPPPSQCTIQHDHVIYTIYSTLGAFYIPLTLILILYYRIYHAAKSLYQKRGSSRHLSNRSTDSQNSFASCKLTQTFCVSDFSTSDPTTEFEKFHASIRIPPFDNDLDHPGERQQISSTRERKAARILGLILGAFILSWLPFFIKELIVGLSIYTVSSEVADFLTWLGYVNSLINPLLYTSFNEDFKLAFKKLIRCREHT
# Sequence of Bcl-2-like protein 10 (Q9HD36 whole entry): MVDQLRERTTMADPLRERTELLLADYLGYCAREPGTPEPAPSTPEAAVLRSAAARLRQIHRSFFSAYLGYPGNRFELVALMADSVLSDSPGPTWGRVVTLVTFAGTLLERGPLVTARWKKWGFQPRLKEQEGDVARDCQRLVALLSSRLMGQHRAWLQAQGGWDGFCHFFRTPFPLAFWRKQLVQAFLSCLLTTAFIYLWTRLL
# Sequence of Potassium voltage-gated channel subfamily KQT member 2 (O88943 whole entry W236L): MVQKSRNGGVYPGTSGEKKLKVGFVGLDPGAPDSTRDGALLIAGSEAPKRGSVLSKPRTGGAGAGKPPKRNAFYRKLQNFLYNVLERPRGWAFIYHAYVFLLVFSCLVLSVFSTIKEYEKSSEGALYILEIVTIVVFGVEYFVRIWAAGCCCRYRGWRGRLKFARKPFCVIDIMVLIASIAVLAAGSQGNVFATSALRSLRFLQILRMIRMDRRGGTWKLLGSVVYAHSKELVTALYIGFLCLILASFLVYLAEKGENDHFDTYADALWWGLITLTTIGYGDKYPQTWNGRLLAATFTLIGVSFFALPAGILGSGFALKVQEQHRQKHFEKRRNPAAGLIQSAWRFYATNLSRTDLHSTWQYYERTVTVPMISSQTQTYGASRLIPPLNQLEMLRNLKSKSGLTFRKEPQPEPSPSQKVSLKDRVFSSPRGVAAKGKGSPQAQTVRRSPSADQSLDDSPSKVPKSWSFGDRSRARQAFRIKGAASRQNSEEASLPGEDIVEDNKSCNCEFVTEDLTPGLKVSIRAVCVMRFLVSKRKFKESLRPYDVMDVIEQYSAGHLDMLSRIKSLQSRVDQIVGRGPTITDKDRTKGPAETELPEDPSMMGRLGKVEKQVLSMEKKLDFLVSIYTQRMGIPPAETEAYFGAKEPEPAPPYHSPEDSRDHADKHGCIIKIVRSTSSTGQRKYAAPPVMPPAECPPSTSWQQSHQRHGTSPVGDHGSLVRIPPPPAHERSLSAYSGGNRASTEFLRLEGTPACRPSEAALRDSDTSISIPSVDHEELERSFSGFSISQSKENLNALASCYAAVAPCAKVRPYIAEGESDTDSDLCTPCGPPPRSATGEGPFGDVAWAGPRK
smiles,measurement,setting,value
O=C(Nc1ccc2ccccc2c1)C(c1ccccc1)C1CCCC1 (configuration not stated),EC50,[1],2420 nM (active)
same,EC50,[2],> 30000 nM (not active)
same,IC50,[3],1850 nM (active)
same,IC50,[4],2100 nM (active)
CC1=C(C(=O)OC2CCCCCCC2)C(c2cccc(O)c2)NC(=O)N1 (configuration not stated),EC50,[5],537000 nM (active)
O=C(c1cnccn1)N1CCc2ccccc21,IC50,[6],23700 nM (active)
same,IC50,[7],< 23 nM (not active)

# Reference: ChEMBL document CHEMBL1201862, “PubChem BioAssay data set” (2004)
